The text below walks through data of patent publication US5955440A, “Macrolide LHRH antagonists” (Abbott Laboratories, priority 1998, dated 1999).

The target of the assay is T1, LHRH rat pituitary receptor (Rattus norvegicus, UniProt P30969).
T1 construct: from tissue; host or cells: rat pituitary
T1 sequence (P30969 1-327): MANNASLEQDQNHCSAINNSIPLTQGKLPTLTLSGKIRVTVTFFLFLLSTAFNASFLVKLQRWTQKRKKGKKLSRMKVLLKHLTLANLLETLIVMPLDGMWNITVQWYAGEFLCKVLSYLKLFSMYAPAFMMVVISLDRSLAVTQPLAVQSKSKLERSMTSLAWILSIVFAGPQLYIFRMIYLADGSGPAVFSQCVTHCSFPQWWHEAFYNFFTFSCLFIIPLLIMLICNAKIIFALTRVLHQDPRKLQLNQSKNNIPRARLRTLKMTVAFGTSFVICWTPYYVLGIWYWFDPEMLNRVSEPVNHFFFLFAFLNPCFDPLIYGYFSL
Nature of the assay: LHRH rat pituitary receptor binding (pKI). Conditions: negative logarithm of the equilibrium dissociation constants; for receptor binding affinity (pKI): Table 1; for Ki: Table 1, read-out: receptor binding affinity (pKI) (converted). How it is done: Representative compounds of the present invention were evaluated in in vitro tests for LHRH rat pituitary receptor binding (pKI) and for LH inhibition from rat pituitary cells for antagonist potency (pA2). The tests employed the methods detailed in F. Haviv, et al. J. Med. Chem., 32: 2340-2344 (1989). The receptor binding affinity (pKI) is the negative logarithm of the equilibrium dissociation constants.

For “3'-N-Desmethyl-3'-N-[3-(3-pyridyl)propyl]-11-deoxy-11-[carboxy-(3,4-dichlorophenethylamino)]-6-O-methyl-erythromycin A 11,12-(cyclic carbamate) [Example 79]”, the “receptor binding affinity (pKI)” value stood at 8.11.

`CC[C@H]1OC(=O)[C@H](C)[C@@H](O[C@H]2C[C@@](C)(OC)[C@@H](O)[C@H](C)O2)[C@H](C)[C@@H](O[C@@H]2O[C@H](C)C[C@H](N(C)C3CCSC3)[C@H]2O)[C@](C)(OC)C[C@@H](C)C(=O)[C@H](C)[C@H]2N(CCc3ccc(Cl)c(Cl)c3)C(=O)O[C@]12C` (stereo partly shown) [Example 8, 3'-N-Desmethyl-3'-N-(3-tetrahydrothienyl)-11-deoxy-11-[carboxy-(3,4-dichlorophenethylamino)]-6-O-methyl-erythromycin A 11,12-(cyclic carbamate)]: the Ki is 7.41 nM.

Take `CC[C@H]1OC(=O)[C@H](C)[C@@H](O[C@H]2C[C@@](C)(OC)[C@@H](O)[C@H](C)O2)[C@H](C)[C@@H](O[C@@H]2O[C@H](C)C[C@H](N(C)C(C)CCc3ccc(O)cc3)[C@H]2O)[C@](C)(OC)C[C@@H](C)C(=O)[C@H](C)[C@H]2N(CCc3ccc(F)c(Cl)c3)C(=O)O[C@]12C` (stereo partly shown) [Example 86, 3'-N-Desmethyl-3'-N-(1-methyl)[3-(4-hydroxy)phenyl]propyl-11-deoxy-11-[carboxy-(3-chloro-4fluorophenethylamino)]-6-O-methyl-erythromycin A 11,12-(cyclic carbamate)]: the Ki was 1.78 nM.

On to `CC[C@H]1OC(=O)[C@H](C)[C@@H](O[C@H]2C[C@@](C)(OC)[C@@H](O)[C@H](C)O2)[C@H](C)[C@@H](O[C@@H]2O[C@H](C)C[C@H](N(C)CCCc3ccncc3)[C@H]2O)[C@](C)(OC)C[C@@H](C)C(=O)[C@H](C)[C@H]2N(CCc3ccc(Cl)c(Cl)c3)C(=O)O[C@]12C` [Example 76, 3'-N-Desmethyl-3'-N-[3-(4-pyridyl)propyl]-11-deoxy-11-[carboxy-(3,4-dichlorophenethylamino)]-6-O-methyl-erythromycin A 11,12-(cyclic carbamate)], for which the Ki is 9.12 nM.

In the case of `CC[C@H]1OC(=O)[C@H](C)[C@@H](O[C@H]2C[C@@](C)(OC)[C@@H](O)[C@H](C)O2)[C@H](C)[C@@H](O[C@@H]2O[C@H](C)C[C@H](N(C)CCc3ccccn3)[C@H]2O)[C@](C)(OC)C[C@@H](C)C(=O)[C@H](C)[C@H]2N(CCc3ccc(F)c(Cl)c3)C(=O)O[C@]12C` [Example 90, 3'-N-Desmethyl-3'-N-(2-pyridyl)ethyl-11-deoxy-11-[carboxy-(3-chloro-4-fluorophenethylamino)]-6-O-methyl-erythromycin A 11,12-(cyclic carbamate)], the Ki was 4.07 nM.

As to `CC[C@H]1OC(=O)[C@H](C)[C@@H](O[C@H]2C[C@@](C)(OC)[C@@H](O)[C@H](C)O2)[C@H](C)[C@@H](O[C@@H]2O[C@H](C)C[C@H](N(C)Cc3ccc(CO)o3)[C@H]2O)[C@](C)(OC)C[C@@H](C)C(=O)[C@H](C)[C@H]2N(CCc3ccc(F)c(Cl)c3)C(=O)O[C@]12C` [Example 46, 3'-N-Desmethyl-3'-N-[2-(5-hydroxymethyl)furyl]methyl-11-deoxy-11-[carboxy-(3-chloro-4-fluorophenethylamino)]-6-O-methyl-erythromycin A 11,12-(cyclic carbamate)], the Ki was 1.15 nM.

As to `CC[C@H]1OC(=O)[C@H](C)[C@@H](O[C@H]2C[C@@](C)(OC)[C@@H](O)[C@H](C)O2)[C@H](C)[C@@H](O[C@@H]2O[C@H](C)C[C@H](N(C)C3CCC3)[C@H]2O)[C@](C)(OC)C[C@@H](C)C(=O)[C@H](C)[C@H]2N(CCc3ccc(Cl)c(F)c3)C(=O)O[C@]12C` [Example 52, 3'-N-Desmethyl-3'-N-cyclobutyl-11-deoxy-11-[carboxy-(4-chloro-3-fluorophenethylamino)]-6-O-methyl-erythromycin A 11,12-(cyclic carbamate)], the Ki was 7.94 nM.

Take `CC[C@H]1OC(=O)[C@H](C)[C@@H](O[C@H]2C[C@@](C)(OC)[C@@H](O)[C@H](C)O2)[C@H](C)[C@@H](O[C@@H]2O[C@H](C)C[C@H](N(C)Cc3ccc(CO)o3)[C@H]2O)[C@](C)(OC)C[C@@H](C)C(=O)[C@H](C)[C@H]2N(CCc3ccc(Cl)c(Cl)c3)C(=O)O[C@]12C` [Example 58, 3'-N-Desmethyl-3'-N-[2-(5-hydroxymethyl)furyl]methyl-11-deoxy-11-[carboxy-(3,4-dichlorophenethylamino)]-6-O-methyl-erythromycin A 11,12-(cyclic carbamate)]: the Ki was 1.55 nM.

Take `CC[C@H]1OC(=O)[C@H](C)[C@@H](O[C@H]2C[C@@](C)(OC)[C@@H](O)[C@H](C)O2)[C@H](C)[C@@H](O[C@@H]2O[C@H](C)C[C@H](N(C)C(C)C)[C@H]2O)[C@](C)(OC)C[C@@H](C)C(=O)[C@H](C)[C@H]2N(CCc3ccc(F)c(F)c3)C(=O)O[C@]12C` [Example 53, 3'-N-Desmethyl-3'-N-isopropyl-11-deoxy-11-[carboxy-(3,4-difluorophenethylamino)]-6-O-methyl-erythromycin A 11,12-(cyclic carbamate)]: the Ki is 3.02 nM.

Turning to `CC[C@H]1OC(=O)[C@H](C)[C@@H](O[C@H]2C[C@@](C)(OC)[C@@H](O)[C@H](C)O2)[C@H](C)[C@@H](O[C@@H]2O[C@H](C)C[C@H](N(C)Cc3ccccn3)[C@H]2O)[C@](C)(OC)C[C@@H](C)C(=O)[C@H](C)[C@H]2N(CCc3ccc(Cl)c(Cl)c3)C(=O)O[C@]12C` [Example 65, 3'-N-Desmethyl-3'-N-(2-pyridyl)methyl-11-deoxy-11-[carboxy-(3,4-dichlorophenethylamino)]-6-O-methyl-erythromycin A 11,12-(cyclic carbamate)], the Ki was 7.41 nM.

With `CC[C@H]1OC(=O)[C@H](C)[C@@H](O[C@H]2C[C@@](C)(OC)[C@@H](O)[C@H](C)O2)[C@H](C)[C@@H](O[C@@H]2O[C@H](C)C[C@H](N(C)CCC(C)SC)[C@H]2O)[C@](C)(OC)C[C@@H](C)C(=O)[C@H](C)[C@H]2N(CCc3ccc(F)c(Cl)c3)C(=O)O[C@]12C` (stereo partly shown) [Example 50, 3'-N-Desmethyl-3'-N-(3-methylthio)butyl-11-deoxy-11-[carboxy-(3-chloro-4-fluorophenethylamino)]-6-O-methyl-erythromycin A 11,12-(cyclic carbamate)], the Ki was 0.977 nM.

For `CC[C@H]1OC(=O)[C@H](C)[C@@H](O[C@H]2C[C@@](C)(OC)[C@@H](O)[C@H](C)O2)[C@H](C)[C@@H](O[C@@H]2O[C@H](C)C[C@H](N(C)Cc3ccncc3)[C@H]2O)[C@](C)(OC)C[C@@H](C)C(=O)[C@H](C)[C@H]2N(CCc3ccc(Cl)cc3)C(=O)O[C@]12C` [Example 34, 3'-N-Desmethyl-3'-N-(4-pyridylmethyl)-11-deoxy-11-[carboxy-(4-chlorophenethylamino)]-6-O-methyl-erythromycin A 11,12-(cyclic carbamate)], the Ki was 10 nM.

On to `CC[C@H]1OC(=O)[C@H](C)[C@@H](O[C@H]2C[C@@](C)(OC)[C@@H](O)[C@H](C)O2)[C@H](C)[C@@H](O[C@@H]2O[C@H](C)C[C@H](N(C)CCCC(F)(F)F)[C@H]2O)[C@](C)(OC)C[C@@H](C)C(=O)[C@H](C)[C@H]2N(CCc3ccc(Cl)c(Cl)c3)C(=O)O[C@]12C` [Example 71, 3'-N-Desmethyl-3'-N-(4,4,4-trifluorobutyl)-11-deoxy-11-[carboxy-(3,4-dichlorophenethylamino)]-6-O-methyl-erythromycin A 11,12-(cyclic carbamate)], for which the Ki is 6.17 nM.

For `CC[C@H]1OC(=O)[C@H](C)[C@@H](O[C@H]2C[C@@](C)(OC)[C@@H](O)[C@H](C)O2)[C@H](C)[C@@H](O[C@@H]2O[C@H](C)C[C@H](N(C)Cc3cccc(C)n3)[C@H]2O)[C@](C)(OC)C[C@@H](C)C(=O)[C@H](C)[C@H]2N(CCc3ccc(F)c(Cl)c3)C(=O)O[C@]12C` [Example 48, 3'-N-Desmethyl-3'-N-[2-(6-methyl)pyridyl]methyl-11-deoxy-11-[carboxy-(3-chloro-4-fluorophenethylamino)]-6-O-methyl-erythromycin A 11,12-(cyclic carbamate)], the Ki is 1.91 nM.

For `CCCN(C)[C@H]1C[C@@H](C)O[C@@H](O[C@@H]2[C@@H](C)[C@H](O[C@H]3C[C@@](C)(OC)[C@@H](O)[C@H](C)O3)[C@@H](C)C(=O)O[C@H](CC)[C@@]3(C)OC(=O)N(CCc4ccc(C)c(C)c4)[C@@H]3[C@@H](C)C(=O)[C@H](C)C[C@@]2(C)OC)[C@@H]1O` [Example 41, 3'-N-Desmethyl-3'-N-propyl-11-deoxy-11-[carboxy-(3,4-dimethylphenethylamino)]-6-O-methyl-erythromycin A 11,12-(cyclic carbamate)], the Ki is 8.51 nM.

Regarding `CC[C@H]1OC(=O)[C@H](C)[C@@H](O[C@H]2C[C@@](C)(OC)[C@@H](O)[C@H](C)O2)[C@H](C)[C@@H](O[C@@H]2O[C@H](C)C[C@H](N(C)CCCCc3ccncc3)[C@H]2O)[C@](C)(OC)C[C@@H](C)C(=O)[C@H](C)[C@H]2N(CCc3ccc(F)c(Cl)c3)C(=O)O[C@]12C` [Example 83, 3'-N-Desmethyl-3'-N-[4-(4-pyridyl)butyl]-11-deoxy-11-[carboxy-(3-chloro-4-fluorophenethylamino)]-6-O-methyl-erythromycin A 11,12-(cyclic carbamate)], the “receptor binding affinity (pKI)” value turned out to be 8.46.
